Measurements as given in US20250230155A1 (Vanderbilt University, priority 2021, published 2025).

Biological target: T1, human mAChR M4 (Homo sapiens, UniProt P08173)
T1 construct: expressed in transfected cells
T1 sequence (P08173 1-479): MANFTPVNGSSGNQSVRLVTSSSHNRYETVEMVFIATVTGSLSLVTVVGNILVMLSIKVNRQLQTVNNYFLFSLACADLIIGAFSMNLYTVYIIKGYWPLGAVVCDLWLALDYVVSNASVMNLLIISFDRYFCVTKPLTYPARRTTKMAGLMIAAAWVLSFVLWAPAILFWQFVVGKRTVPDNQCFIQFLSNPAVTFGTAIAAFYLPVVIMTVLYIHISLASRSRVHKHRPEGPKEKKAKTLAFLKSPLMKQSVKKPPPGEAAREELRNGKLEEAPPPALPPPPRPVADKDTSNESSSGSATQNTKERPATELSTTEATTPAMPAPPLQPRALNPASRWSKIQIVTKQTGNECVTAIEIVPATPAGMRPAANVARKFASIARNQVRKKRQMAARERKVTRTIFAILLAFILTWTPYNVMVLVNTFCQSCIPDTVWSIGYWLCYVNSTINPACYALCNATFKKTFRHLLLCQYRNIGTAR
Assay: mAChR M4 cell-based functional assay (calcium mobilization, CHO-K1 hM4-Gqi5 cells)
Details: for Emax at 30 µM: CHO-K1, % ACh maximum at 30 μM, human M4; for EC50: positive allosteric modulator activity, increase in the EC20 acetylcholine response, CHO-K1 hM4-Gqi5 cells, read-out: Human M4 EC50
Summary of the method: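 CHO-K1 cells stably expressing human M4 with chimeric Gqi5, loaded with Fluo-4 AM; compounds given as 11-point 1:3 curves and calcium flux read on FDSS at 1 Hz. Acetylcholine EC20 added at 144 s, EC80 at 230 s; agonist, PAM (EC20 potentiation) and antagonist (EC80 inhibition) EC50/Emax from four-parameter fits.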

Emax at 30 µM [%]	EC50 [µM]	Structure (SMILES)
88	1.88	Cc1c(C(=O)NCc2cccnc2)nnc(N2CCc3ncccc3C2)c1C [compound 136, 6-(7,8-dihydro-5H-1,6-naphthyridin-6-yl)-4,5-dimethyl-N-(3-pyridylmethyl)pyridazine-3-carboxamide]
91	3.38	Cc1c(C(=O)NCc2ccccn2)nnc(N2CCc3ncccc3C2)c1C [compound 137, 6-(7,8-dihydro-5H-1,6-naphthyridin-6-yl)-4,5-dimethyl-N-(2-pyridylmethyl)pyridazine-3-carboxamide]
96	1.11	Cc1c(C(=O)NCc2cncs2)nnc(N2CCc3ncccc3C2)c1C [compound 138, 6-(7,8-dihydro-5H-1,6-naphthyridin-6-yl)-4,5-dimethyl-N-(thiazol-5-ylmethyl)pyridazine-3-carboxamide]
70	1.36	Cc1cc(C(=O)NCc2cncc(Br)c2)cnc1N1CCc2ncccc2C1 [compound 139, N-[(5-bromo-3-pyridyl)methyl]-6-(7,8-dihydro-5H-1,6-naphthyridin-6-yl)-5-methyl-pyridine-3-carboxamide]
62	1.03	Cc1cc(C(=O)NCc2cnc3ccccc3c2)cnc1N1CCc2ncccc2C1 [compound 140, 6-(7,8-dihydro-5H-1,6-naphthyridin-6-yl)-5-methyl-N-(3-quinolylmethyl)pyridine-3-carboxamide]
56	1.42	COc1ccc(Br)cc1CNC(=O)c1cnc(N2CCc3ncccc3C2)c(C)c1 [compound 141, N-[(5-bromo-2-methoxy-phenyl)methyl]-6-(7,8-dihydro-5H-1,6-naphthyridin-6-yl)-5-methyl-pyridine-3-carboxamide]
50	≥ 10	COC(=O)c1ccc(CNC(=O)c2cnc(N3CCc4ncccc4C3)c(C)c2)cn1 [compound 142, methyl 5-[[[6-(7,8-dihydro-5H-1,6-naphthyridin-6-yl)-5-methyl-pyridine-3-carbonyl]amino]methyl]pyridine-2-carboxylate]
53	5.83	Cc1cc(C(=O)NCc2ccc(S(C)(=O)=O)cc2)cnc1N1CCc2ncccc2C1 [compound 143, 6-(7,8-dihydro-5H-1,6-naphthyridin-6-yl)-5-methyl-N-[(4-methylsulfonylphenyl)methyl] pyridine-3-carboxamide]
61	6.09	Cc1cc(C(=O)NCc2ccc(C(F)(F)F)cn2)cnc1N1CCc2ncccc2C1 [compound 144, 6-(7,8-dihydro-5H-1,6-naphthyridin-6-yl)-5-methyl-N-[[5-(trifluoromethyl)-2-pyridyl]methyl]pyridine-3-carboxamide]
50	≥ 10	Cc1cc(C(=O)NCc2ncc(C(F)(F)F)cn2)cnc1N1CCc2ncccc2C1 [compound 145, 6-(7,8-dihydro-5H-1,6-naphthyridin-6-yl)-5-methyl-N-[[5-(trifluoromethyl)pyrimidin-2-yl]methyl]pyridine-3-carboxamide]
56	≥ 10	Cc1cc(C(=O)NCc2ncc(Cl)cn2)cnc1N1CCc2ncccc2C1 [compound 146, N-[(5-chloropyrimidin-2-yl)methyl]-6-(7,8-dihydro-5H-1,6-naphthyridin-6-yl)-5-methyl-pyridine-3-carboxamide]
52	≥ 10	Cc1cc(C(=O)NCc2ncc(F)cn2)cnc1N1CCc2ncccc2C1 [compound 147, 6-(7,8-dihydro-5H-1,6-naphthyridin-6-yl)-N-[(5-fluoropyrimidin-2-yl)methyl]-5-methyl-pyridine-3-carboxamide]
67	3.54	Cc1cc(C(=O)NCc2ccc(-n3ccnc3)nc2)cnc1N1CCc2ncccc2C1 [compound 148, 6-(7,8-dihydro-5H-1,6-naphthyridin-6-yl)-N-[(6-imidazol-1-yl-3-pyridyl)methyl]-5-methyl-pyridine-3-carboxamide]
